Here are results for six compounds from patent US6555529B1, “Remedies for intramedullary diseases” (Toray Industries, Inc., priority 1997, dated 2003).

Marks after values point to notes of the source that are not given here.

In experiment [1] the test system is osteomyelitis accompanying adjuvant arthritis (neutrophil infiltration into joints). Nature of the experiment: Suppression of osteomyelitis accompanying rat adjuvant arthritis. It is filed as in vivo. The note with it: for Osteomyelitis score for the intertarsal and tarsometatarsal joints / Osteomyelitis score for the talocrural joint region: Lewis rats, scored day 22, grades 0-3, mean ± SE; for osteomyelitis suppressing effect (in words): rat adjuvant arthritis, summary of Table 1. The method, then: 0.1 mg of inactivated dried Mycobacterium butyricum was suspended in 0.1 ml of liquid paraffin, and this was injected into the left hind foot pad of 8-week old female Lewis rats. […] As a control group, the subcutaneous administration of sterile distilled water was carried out. One day after the completion of the administration (day 22) the rats were sacrificed, the skin and muscle removed from the right hind limb and, following decalcification, pathological specimens were prepared. […] Furthermore, Diclofenac (Compound 4) and Indomethacin (Compound 5) were used as existing anti-inflammatory drugs. The results obtained are shown in Table 1 as mean values±standard errors. Using the […] multiple comparison method (parametric), the results were assigned the symbol * when significant at a level of significance of p<0.05, and the symbol ** when significant at a level of significance of p<0.01, compared to the control group in which only sterile distilled water was used.

The test system of experiment [2] is chronic myelocytic leukaemia cell strain K562. Nature of the experiment: Suppression of K562 cell proliferation (MTT assay). It is filed as cell-based. Also noted: unit of the concentration uncertain. The note with it: 120 hours culture, mean ± SE. The method, then: (§1) Acute promyelocytic leukaemia cell strain KG-1, T-cell type acute lymphoblastic leukaemia cell strain RPMI-8402, B-cell-type acute lymphoblastic leukaemia cell strain CCRF-SB, chronic myelocytic leukaemia cell strain K562 and myeloblastoma cell strain ML-2 were prepared at concentrations of 2×10^4 or 4×10^4 cells per ml of culture medium. In each case, 0.05 ml quantities were added per well of a 96 well culture plate and culturing carried out at a carbon dioxide concentration of 5% for 24 hours at 37° C. Furthermore, 0.05 ml quantities of culture medium to which Compound 1 had been added were added to the aforesaid culture plate, and culturing carried out under the same conditions for 120 hours. The number of cells when the culturing was completed was calculated by the MTT calorimetric assay and the percentage suppression of tumour cell proliferation in terms of a control group to which no compound had been added was determined.
(§2) As well as Compound 1, there were used as test compounds 1-hydroxyethane-1,1-bisphosphonic acid disodium salt (Compound 6) and (4-chlorophenylthio)methane-1,1-bisphosphonic acid disodium salt (Compound 7). The results are shown in Table 2 as mean values±standard errors.
(§3) Using Dunett multiple comparison method (parametric), the results were assigned the symbol * when significant at a level of significance of p<0.05, and the symbol *** when significant at a level of significance of p<0.001, compared to the control group.

The test system of experiment [3] is myeloblastoma cell strain ML-2. Briefly: Suppression of ML-2 cell proliferation (MTT assay). The conditions noted are these: 120 hours culture, mean ± SE. Also noted: unit of the concentration uncertain. It is filed as cell-based. The method, then: as §1, §2, §3
A general note: Formazan colour is commonly taken as a measure of viable cells.

The subject of experiment [4] is acute promyelocytic leukaemia cell strain KG-1. Briefly: Suppression of KG-1 cell proliferation (MTT assay). It is filed as cell-based. Also noted: unit of the concentration uncertain. The conditions noted are these: 120 hours culture, mean ± SE. The method, then:
as §1, §2, §3

In another experiment the test system is tumour cells. Nature of the experiment: Suppression of leukaemia cell and myeloma cell proliferation (summary over all cell strains). It is filed as cell-based. The conditions noted are these: summary of Table 2. The method, then:
as §1
As well as Compound 1, there were used as test compounds 1-hydroxyethane-1,1-bisphosphonic acid disodium salt (Compound 6) and (4-chlorophenylthio)methane-1,1-bisphosphonic acid disodium salt (Compound 7). The results are shown in Table 2 as mean values±standard errors. […]

Experiment [5] concerns T-cell type acute lymphoblastic leukaemia cell strain RPMI-8402. Briefly: Suppression of RPMI-8402 cell proliferation (MTT assay). It is filed as cell-based. The note with it: 120 hours culture, mean ± SE. The method, then: as §1, §2, §3
In experiment [6] the test system is B-cell-type acute lymphoblastic leukaemia cell strain CCRF-SB. Nature of the experiment: Suppression of CCRF-SB cell proliferation (MTT assay). The class given is cell-based. Also noted: unit of the concentration uncertain. The note with it: 120 hours culture, mean ± SE. The method, then:
as §1, §2, §3

On to `NCCCC(O)(P(=O)(O)O)P(=O)(O)O` [Compound 2, 4-amino-1-hydroxybutane-1,1-bisphosphonic acid], for which, in experiment [1] (0.31 mg/kg, Table 1-2), the “Osteomyelitis score for the intertarsal and tarsometatarsal joints” value is 0.2 ± 0.17**; the “Osteomyelitis score for the talocrural joint region” value is reported as 0.0 ± 0.0**. Moreover, the “osteomyelitis suppressing effect (in words)” value in experiment [1] was “suppressed”.

As to `O=P(O)(O)C(O)(Cc1cccnc1)P(=O)(O)O` [Compound 3, 2-(3-pyridyl)-1-hydroxyethane-1,1-bisphosphonic acid], in experiment [1] (0.31 mg/kg, Table 1-3), the “Osteomyelitis score for the intertarsal and tarsometatarsal joints” value was 0.0 ± 0.0**; the “Osteomyelitis score for the talocrural joint region” value was 0.0 ± 0.0**. Further, the “osteomyelitis suppressing effect (in words)” value in experiment [1] is listed as “suppressed”.

Consider `O=C(O)Cc1ccccc1Nc1c(Cl)cccc1Cl` [Compound 4, Diclofenac, reference compound], for which, in experiment [1] (0.1 mg/kg, Table 1-4), the “Osteomyelitis score for the intertarsal and tarsometatarsal joints” value is 1.8 ± 0.2; the “Osteomyelitis score for the talocrural joint region” value amounted to 1.2 ± 0.3. Also, the “osteomyelitis suppressing effect (in words)” value in experiment [1] was “weak”.

Turning to `COc1ccc2c(c1)c(CC(=O)O)c(C)n2C(=O)c1ccc(Cl)cc1` [Compound 5, Indomethacin, reference compound], in experiment [1] (0.1 mg/kg, Table 1-5), the “Osteomyelitis score for the intertarsal and tarsometatarsal joints” value stood at 2.5 ± 0.2; the “Osteomyelitis score for the talocrural joint region” value worked out at 1.8 ± 0.4. Further, the “osteomyelitis suppressing effect (in words)” value in experiment [1] is on record as “weak”.

For the compound `CC(O)(P(=O)([O-])[O-])P(=O)(O)O.[Na+].[Na+]` [Compound 6, 1-hydroxyethane-1,1-bisphosphonic acid disodium salt], the entries for the “Percentage suppression of K562 cell proliferation” value in experiment [2] (1 (unit uncertain)), in experiment [2] (10 (unit uncertain)) and in experiment [2] (100 (unit uncertain)) were 44.4 ± 1.3*** %, −2.5 ± 0.3% and 3.2 ± 0.6%, respectively. In addition, the “Percentage suppression of ML-2 cell proliferation” value in experiment [3] (1 (unit uncertain)) was 147.2 ± 20.4*** %; in experiment [3] (10 (unit uncertain)), −20.6 ± 17.2%; in experiment [3] (100 (unit uncertain)), 16.0 ± 17.2%. Also, the “Percentage suppression of KG-1 cell proliferation” value in experiment [4] (1 (unit uncertain)) is listed as 40.7 ± 1.7*** %; in experiment [4] (10 (unit uncertain)), 1.6 ± 2.1%; in experiment [4] (100 (unit uncertain)), 2.9 ± 2.4%. In addition, the “proliferation of tumour cells (in words)” value in the experiment with tumour cells is recorded as “suppressed”. For the same compound, the “Percentage suppression of RPMI8402 cell proliferation” value in experiment [5] (1 mM) was 28.2 ± 2.0*** %; in experiment [5] (10 mM) it was −3.4 ± 1.3%; in experiment [5] (100 mM), 2.9 ± 1.5%. For the same compound, the results for the “Percentage suppression of CCRF-SB cell proliferation” value in experiment [6] (1 (unit uncertain)), in experiment [6] (10 (unit uncertain)) and in experiment [6] (100 (unit uncertain)) were 42.1 ± 0.9*** %, 2.2 ± 0.8% and 0.4 ± 1.2%, respectively.

Regarding `O=P([O-])([O-])C(Sc1ccc(Cl)cc1)P(=O)(O)O.[Na+].[Na+]` [Compound 7, (4-chlorophenylthio)methane-1,1-bisphosphonic acid disodium salt], the figures for the “Percentage suppression of K562 cell proliferation” value in experiment [2] (1 (unit uncertain)), in experiment [2] (10 (unit uncertain)) and in experiment [2] (100 (unit uncertain)) were 97.8 ± 0.3*** %, −1.0 ± 1.3% and −3.1 ± 0.5%, respectively. Also, the results for the “Percentage suppression of ML-2 cell proliferation” value in experiment [3] (1 (unit uncertain)), in experiment [3] (10 (unit uncertain)) and in experiment [3] (100 (unit uncertain)) were 130.4 ± 11.2*** %, 7.3 ± 7.3% and 42.8 ± 10.1* %, respectively. In addition, the results for the “Percentage suppression of KG-1 cell proliferation” value in experiment [4] (1 (unit uncertain)), in experiment [4] (10 (unit uncertain)) and in experiment [4] (100 (unit uncertain)) were 97.1 ± 0.6*** %, −1.1 ± 1.1% and 2.2 ± 1.6%, respectively. The “proliferation of tumour cells (in words)” value with tumour cells is reported as “suppressed”. Also, the “Percentage suppression of RPMI8402 cell proliferation” value in experiment [5] (1 mM) was 87.2 ± 0.6*** %; in experiment [5] (10 mM) it was −2.5 ± 2.0%; in experiment [5] (100 mM), 7.4 ± 6.3%. Also, the “Percentage suppression of CCRF-SB cell proliferation” value in experiment [6] (1 (unit uncertain)) is recorded as 61.3 ± 1.1*** %; in experiment [6] (10 (unit uncertain)) it was 0.1 ± 1.9%; in experiment [6] (100 (unit uncertain)), 3.5 ± 2.2%.
